# Like-named read-outs stand apart in the source and are kept apart here.
# Tests used:
# [1] = system: Maximal electroshock seizures; assay: Phase VI oral MES test, rats; assay type: in vivo; settings: for responders at 60 mg/kg / responders at 50 mg/kg: Rattus norvegicus, read-out: MES, animals protected/tested (converted)
# Description: (§1) Maximal electroshock seizures are elicited with a 60-cycle alternating current of 50 mA intensity (5-7 times that necessary to elicit minimal electroshock seizures) delivered via corneal electrodes for 0.2 seconds. A drop of 0.9% saline is instilled in the eye prior to application of the electrodes in order to […].
# (§2) This oral screen is designated as phase VI.
# [2] = Neurotoxicity, rats ip
# Protocol: (§3) The rotorod test is used to elevate neurotoxicity. The animal is placed on a 1 inch diameter knurled plastic rod rotating at 6 rpm. […] Neurologic toxicity is defined as the failure of the animal to remain on the rod for 1 minute and the results are expressed as the number of animals protected/the number of animals tested.
# (§4) The toxicity evaluation for the commercial agents as previously indicated was based on the onset of ataxia.
# [3] = in vivo; settings: rat, po
# Description: as §2
# [4] = in vivo; settings: mouse, in vivo
# Protocol: The first phase of the ADD Program involved performing tests on male Carworth Farms #1 mice. […] Three tests were performed:
# In the second phase of the ADD program protocol, estimates of anticonvulsant activity and neurotoxicity are quantified. The median effective dose (ED50) in the MES, sc Met, and rotorod test is determined. In the case of a compound with apparent activity in only one anticonvulsant test, testing is carried out in the other up to, and in some cases beyond, doses which produce neurological deficit. Compounds which fail to produce minimal neurological deficit are tested whenever possible to doses ten times their lowest anticonvulsant ED50. […] The rotorod ED50 is determined at the time of the peak neurologic deficit.
# [5] = system: Maximal electroshock seizures; assay: MES maximal electroshock seizure test, mice ip; assay type: in vivo; set-up: TPE (time of peak effect), activity: unit not given here; settings: ip; for responders at 100 mg/kg: read-out: MES, animals protected/tested (converted); for responders at 300 mg/kg: read-out: MES, animals protected/tested
# Protocol: Three tests were performed:
# 1. MES--Electroshock Seizure Test
# as §1
# [6] = system: Subcutaneous Pentylenetetrazol seizure; assay: sc Met subcutaneous pentylenetetrazol (Metrazol) seizure test, mice; assay type: in vivo; settings: Mus musculus, sc, read-out: scMet, animals protected/tested (converted)
# [7] = system: seizures; assay: Anticonvulsant evaluation (ASP phase I / overall); assay type: in vivo, mice; settings: for minimal effective dose: Mus musculus, ip, Phase I, read-out: ASP Classification
# Procedure, shortened: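 Male Carworth Farms #1 mice; maximal electroshock seizures elicited by 60-cycle AC, 50 mA, 0.2 s via corneal electrodes after a drop of 0.9% saline in the eye. Animals observed for 30 minutes.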
# [8] = system: electroshock seizures; assay: MES maximal electroshock test, rats ip; assay type: in vivo; settings: for ED50: Rattus norvegicus, ip
# Description: as §1
# [9] = in vivo; settings: rat, ip
# Protocol: as §3, §4
compound,measurement,setting,value
CC1(C)CC(=O)C=C(Nc2ccccc2)C1 [Compound 36],ED50,"[1]; Phase VI, oral, rat",30.1 mg/kg
same,anticonvulsant activity over time,"[1]; Phase VI, rats",anticonvulsant activity is lost after 1 hour
same,responders at 60 mg/kg,"[1]; 0.5 h, oral, 0.50 h",75%
same,responders at 60 mg/kg,"[1]; oral, 0.25 h",75%
same,responders at 60 mg/kg,"[1]; oral, 1.00 h",0%
same,responders at 60 mg/kg,"[1]; oral, 2.00 h",0%
same,responders at 60 mg/kg,"[1]; oral, 4.00 h",0%
same,animals displaying neurotoxicity/tested,"[2]; 100 mg/kg, 0.25 h (Table X-A)",5/8
same,animals displaying neurotoxicity/tested,"[2]; 100 mg/kg, 0.50 h (Table X-A)",7/8
same,animals displaying neurotoxicity/tested,"[2]; 100 mg/kg, 1.00 h (Table X-A)",6/8
same,animals displaying neurotoxicity/tested,"[2]; 100 mg/kg, 2.00 h (Table X-A)",6/8
same,animals displaying neurotoxicity/tested,"[2]; 100 mg/kg, 4.00 h (Table X-A)",3/8
same,animals displaying neurotoxicity/tested,"[2]; 100 mg/kg, 6.00 h (Table X-A)",3/8
same,animals displaying neurotoxicity/tested,"[2]; 100 mg/kg, 24.00 h (Table X-A)",0/8
same,TD50,[3],> 250 mg/kg
same,selectivity ratio,[3],8.3
same,"Tox, animals toxic/tested",[3]; 60 mg/kg,0/4
same,protective index,[4],modest
same,TD50,[4]; ip,233 mg/kg
same,"TPE (time of peak effect), toxicity",[4]; ip,0.5
same,selectivity ratio,[4]; ip,2.13
same,responders at 100 mg/kg,"[5]; Mus musculus, 0.5 h, 30 min",66.7%
same,responders at 300 mg/kg,"[5]; Mus musculus, 0.5 h, 30 min",100%
same,responders at 100 mg/kg,"[5]; Mus musculus, 4 h, 4 h",0%
same,responders at 300 mg/kg,"[5]; Mus musculus, 4 h, 4 h",0%
same,ED50,"[5]; Mus musculus, Phase II, time of peak effect",109 mg/kg
same,"TPE (time of peak effect), activity",[5]; Phase II,0.5
same,responders at 100 mg/kg,"[6]; 0.5 h, 30 min",0%
same,responders at 300 mg/kg,"[6]; 0.5 h, 30 min",0%
same,responders at 100 mg/kg,"[6]; 4 h, 4 h",0%
same,responders at 300 mg/kg,"[6]; 4 h, 4 h",0%
same,minimal effective dose,[7],< 100 mg/kg
same,anticonvulsant activity,"[7]; mouse, in vivo",potent anticonvulsants
COC(=O)C1C(=O)C=C(Nc2ccc(Br)cc2)CC1C (centres unmarked) [Compound 113],"MES, animals protected/tested","[8]; 1.2 mg/kg, 0.25 h",0/8
same,"MES, animals protected/tested","[8]; 3.6 mg/kg, 0.25 h",5/8
same,"MES, animals protected/tested","[8]; 4.5 mg/kg, 0.25 h",3/8
same,"MES, animals protected/tested","[8]; 4.8 mg/kg, 0.25 h",3/4
same,"MES, animals protected/tested","[8]; 4.8 mg/kg, 0.50 h",3/4
same,"MES, animals protected/tested","[8]; 4.8 mg/kg, 1.00 h",2/4
same,"MES, animals protected/tested","[8]; 6.0 mg/kg, 0.25 h",3/4
same,"MES, animals protected/tested","[8]; 6.0 mg/kg, 0.50 h",2/4
same,"MES, animals protected/tested","[8]; 6.0 mg/kg, 1.00 h",3/4
same,"MES, animals protected/tested","[8]; 6.0 mg/kg, 2.00 h",0/4
same,"MES, animals protected/tested","[8]; 7.0 mg/kg, 0.25 h",7/8
same,ED50,[8]; 0.25 h,4 mg/kg
same,responders at 50 mg/kg,"[1]; 0.5 h, oral, 0.50 h",100%
same,responders at 50 mg/kg,"[1]; oral, 0.25 h",75%
same,responders at 50 mg/kg,"[1]; oral, 1.00 h",100%
same,responders at 50 mg/kg,"[1]; oral, 2.00 h",100%
same,responders at 50 mg/kg,"[1]; oral, 4.00 h",100%
same,"Tox, animals exhibiting neurotoxicity/tested","[2]; 100 mg/kg, 2.00 h (Table VIII)",0/8
same,"Tox, animals exhibiting neurotoxicity/tested","[2]; 180 mg/kg, 2.00 h (Table VII)",2/4
same,"Tox, animals exhibiting neurotoxicity/tested","[2]; 180 mg/kg, 2.00 h (Table VIII)",2/8
same,"Tox, animals exhibiting neurotoxicity/tested","[2]; 180 mg/kg, 4.00 h",1/8
same,"Tox, animals exhibiting neurotoxicity/tested","[2]; 220 mg/kg, 0.25 h",0/8
same,"Tox, animals exhibiting neurotoxicity/tested","[2]; 220 mg/kg, 0.50 h",0/8
same,"Tox, animals exhibiting neurotoxicity/tested","[2]; 220 mg/kg, 1.00 h",1/8
same,"Tox, animals exhibiting neurotoxicity/tested","[2]; 220 mg/kg, 2.00 h",4/8
same,"Tox, animals exhibiting neurotoxicity/tested","[2]; 220 mg/kg, 2.00 h (Table VIII)",4/8
same,"Tox, animals exhibiting neurotoxicity/tested","[2]; 220 mg/kg, 6.00 h",0/8
same,"Tox, animals exhibiting neurotoxicity/tested","[2]; 220 mg/kg, 24.00 h",0/8
same,"Tox, animals exhibiting neurotoxicity/tested","[2]; 440 mg/kg, 2.00 h",6/8
same,"Tox, animals toxic/tested",[3]; 50 mg/kg,0/4
same,TD50 at 2 h,[9],270 mg/kg
same,selectivity ratio,[9],67.4
same,responders at 100 mg/kg,"[5]; Mus musculus, 0.5 h, 30 min",100%
same,responders at 300 mg/kg,"[5]; Mus musculus, 0.5 h, 30 min",100%
same,responders at 100 mg/kg,"[5]; Mus musculus, 4 h, 4 h",100%
same,responders at 300 mg/kg,"[5]; Mus musculus, 4 h, 4 h",100%
same,responders at 100 mg/kg,"[6]; 0.5 h, 30 min",0%
same,responders at 300 mg/kg,"[6]; 0.5 h, 30 min",40%
same,responders at 100 mg/kg,"[6]; 4 h, 4 h",0%
same,responders at 300 mg/kg,"[6]; 4 h, 4 h",0%
same,minimal effective dose,[7],< 100 mg/kg
COC(=O)C1C(=O)C=C(Nc2ccc(C(F)(F)F)cc2)CC1C (centres unmarked) [Compound 115],"MES, animals protected/tested","[8]; 1.0 mg/kg, 0.50 h",0/8
same,"MES, animals protected/tested","[8]; 2.0 mg/kg, 0.50 h (Table VII)",1/4
same,"MES, animals protected/tested","[8]; 2.0 mg/kg, 0.50 h (Table VIII)",3/8
same,"MES, animals protected/tested","[8]; 2.0 mg/kg, 1.00 h",1/4
same,"MES, animals protected/tested","[8]; 3.0 mg/kg, 0.50 h",3/8
same,"MES, animals protected/tested","[8]; 3.5 mg/kg, 0.50 h",4/8
same,"MES, animals protected/tested","[8]; 4.0 mg/kg, 0.25 h",2/4
same,"MES, animals protected/tested","[8]; 4.0 mg/kg, 0.50 h (Table VII)",3/4
same,"MES, animals protected/tested","[8]; 4.0 mg/kg, 0.50 h (Table VIII)",7/8
same,"MES, animals protected/tested","[8]; 4.0 mg/kg, 1.00 h",3/4
same,"MES, animals protected/tested","[8]; 4.0 mg/kg, 2.00 h",2/4
same,ED50,"[8]; 0.5 h, 0.50 h",2.95 mg/kg
same,responders at 50 mg/kg,"[1]; 0.5 h, oral, 0.50 h",100%
same,responders at 50 mg/kg,"[1]; oral, 0.25 h",75%
same,responders at 50 mg/kg,"[1]; oral, 1.00 h",100%
same,responders at 50 mg/kg,"[1]; oral, 2.00 h",100%
same,responders at 50 mg/kg,"[1]; oral, 4.00 h",100%
same,"Tox, animals exhibiting neurotoxicity/tested","[2]; 8 mg/kg, 0.25-24 h",0/2
same,"Tox, animals exhibiting neurotoxicity/tested","[2]; 16 mg/kg, 0.25-24 h",0/2
same,"Tox, animals exhibiting neurotoxicity/tested","[2]; 32 mg/kg, 0.25-24 h",0/2
same,"Tox, animals exhibiting neurotoxicity/tested","[2]; 64 mg/kg, 0.25-24 h",0.2
same,"Tox, animals toxic/tested",[3]; 50 mg/kg,0/4
same,TD50,[9],> 64 mg/kg
same,selectivity ratio,[9],> 21.7
same,responders at 100 mg/kg,"[5]; Mus musculus, 0.5 h, 30 min",100%
same,responders at 300 mg/kg,"[5]; Mus musculus, 0.5 h, 30 min",100%
same,responders at 100 mg/kg,"[5]; Mus musculus, 4 h, 4 h",33.3%
same,responders at 300 mg/kg,"[5]; Mus musculus, 4 h, 4 h",100%
same,responders at 100 mg/kg,"[6]; 0.5 h, 30 min",0%
same,responders at 300 mg/kg,"[6]; 0.5 h, 30 min",40%
same,responders at 100 mg/kg,"[6]; 4 h, 4 h",0%
same,responders at 300 mg/kg,"[6]; 4 h, 4 h",0%
same,minimal effective dose,[7],< 100 mg/kg
